Experimental data as given in publication PMC6268991, “Impact of Halogen Substituents on Interactions between 2-Phenyl-2,3-dihydroqulinazolin-4(1H)-one Derivatives and Human Serum Albumin” (Molecules, 2012).

target: T1, human serum albumin (HSA) (Homo sapiens, UniProt P02768); experiment: intrinsic fluorescence quenching, modified Stern-Volmer; type: binding; details: 298 K, pH 7.4, 0.1 M Tris, 0.1 M NaCl, 1 µM HSA, ex 280 / em 337 nm; site II (subdomain IIIA), no site marker
T1 construct: gene ALB
T1 sequence (P02768 25-609): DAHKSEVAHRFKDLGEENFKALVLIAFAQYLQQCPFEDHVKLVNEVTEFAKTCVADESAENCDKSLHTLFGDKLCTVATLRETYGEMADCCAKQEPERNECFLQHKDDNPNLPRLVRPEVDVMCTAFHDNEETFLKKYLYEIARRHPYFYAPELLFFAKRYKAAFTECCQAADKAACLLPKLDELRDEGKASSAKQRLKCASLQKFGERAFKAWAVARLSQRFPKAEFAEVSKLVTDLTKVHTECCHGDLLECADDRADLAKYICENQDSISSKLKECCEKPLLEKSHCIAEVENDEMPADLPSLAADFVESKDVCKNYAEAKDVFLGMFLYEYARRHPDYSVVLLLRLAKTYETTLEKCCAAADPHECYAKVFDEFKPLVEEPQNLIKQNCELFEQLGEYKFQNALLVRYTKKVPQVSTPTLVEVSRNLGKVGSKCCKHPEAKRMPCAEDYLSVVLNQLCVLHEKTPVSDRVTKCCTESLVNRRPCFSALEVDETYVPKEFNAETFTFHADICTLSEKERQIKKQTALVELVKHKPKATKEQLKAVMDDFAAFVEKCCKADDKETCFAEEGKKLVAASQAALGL
Excerpt: intrinsic fluorescence quenching, modified Stern-Volmer on human serum albumin (HSA)

| Compound | Ka (×10^4 M^-1) |
| --- | --- |
| CC(C)(C)CC(=O)N1c2ccc(Cl)cc2C(=O)N(N=Cc2ccc(I)cc2)C1c1ccc(I)cc1 (centres unmarked) [3e, 3-(4-Iodobenzylideneamino)-6-chloro-1-(3,3-dimethylbutanoyl)-2-(4-iodophenyl)-2,3-dihydroquinazolin-4(1H)-one] | 7.21 ×10^4 M^−1 |
| CC(C)(C)CC(=O)N1c2ccc(Cl)cc2C(=O)N(N=Cc2ccccc2)C1c1ccccc1 (centres unmarked) [3a, 3-(Benzylideneamino)-6-chloro-1-(3,3-dimethylbutanoyl)-2-phenyl-2,3-dihydroquinazolin-4(1H)-one] | 2.16 ×10^4 M^−1 |
| CC(C)(C)CC(=O)N1c2ccc(Cl)cc2C(=O)N(N=Cc2ccc(Cl)cc2)C1c1ccc(Cl)cc1 (centres unmarked) [3c, 3-(4-Chlorobenzylideneamino)-6-chloro-1-(3,3-dimethylbutanoyl)-2-(4-chlorophenyl)-2,3-dihydroquinazolin-4(1H)-one] | 3.44 ×10^4 M^−1 |

Now from value to compound:

| Ka (×10^4 M^-1) | Compound |
| --- | --- |
| 2.64 ×10^4 M^−1 | CC(C)(C)CC(=O)N1c2ccc(Cl)cc2C(=O)N(N=Cc2ccc(F)cc2)C1c1ccc(F)cc1 (centres unmarked) [3b, 3-(4-Fluorobenzylideneamino)-6-chloro-1-(3,3-dimethylbutanoyl)-2-(4-fluorophenyl)-2,3-dihydroquinazolin-4 (1H)-one] |
| 4.37 ×10^4 M^−1 | CC(C)(C)CC(=O)N1c2ccc(Cl)cc2C(=O)N(N=Cc2ccc(Br)cc2)C1c1ccc(Br)cc1 (centres unmarked) [3d, 3-(4-Bromobenzylideneamino)-6-chloro-1-(3,3-dimethylbutanoyl)-2-(4-bromophenyl)-2,3-dihydroquinazolin-4(1H)-one] |
